Test system: 616215-338-R-J1-PDC complex spheroid growth, % test/control
Assay: Anticancer human tumor 616215-338-R-J1-PDC patient-derived colon adenocarcinoma cell line growth inhibition [Asc]
Settings: for IC50: curve of first compound; for viability, T/C: stronger effect = lower value
Outline: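 Spheroid model: tumor line + HUVEC + hMSC. Single agents and combinations; top conc. at/near clinical Cmax (10 microM if undetermined), half-log dilutions. DMSO stocks at 800-fold test concentration.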

[1] = second compound 0.1 µM, first compound 0.0316 µM
[2] = second compound 0.1 µM, first compound 0.1 µM
[3] = second compound 0.1 µM, first compound 0.316 µM
[4] = second compound 0.1 µM, first compound 1 µM
[5] = second compound 0.1 µM, first compound 3.16 µM
[6] = second compound 0.1 µM, first compound 10 µM
[7] = second compound 0.316 µM, first compound 0.0316 µM
[8] = second compound 0.316 µM, first compound 0.1 µM
[9] = second compound 0.316 µM, first compound 0.316 µM
[10] = second compound 0.316 µM, first compound 1 µM
[11] = second compound 0.316 µM, first compound 3.16 µM
[12] = second compound 0.316 µM, first compound 10 µM
[13] = second compound 1 µM, first compound 0.0316 µM
[14] = second compound 1 µM, first compound 0.1 µM
[15] = second compound 1 µM, first compound 0.316 µM
[16] = second compound 1 µM, first compound 1 µM
[17] = second compound 1 µM, first compound 3.16 µM
[18] = second compound 1 µM, first compound 10 µM
[19] = second compound 3.16 µM, first compound 0.0316 µM
[20] = second compound 3.16 µM, first compound 0.1 µM
[21] = second compound 3.16 µM, first compound 0.316 µM
[22] = second compound 3.16 µM, first compound 1 µM
[23] = second compound 3.16 µM, first compound 3.16 µM
[24] = second compound 3.16 µM, first compound 10 µM
[25] = second compound 10 µM, first compound 0.0316 µM
[26] = second compound 10 µM, first compound 0.1 µM
[27] = second compound 10 µM, first compound 0.316 µM
[28] = second compound 10 µM, first compound 1 µM
[29] = second compound 10 µM, first compound 3.16 µM
[30] = second compound 10 µM, first compound 10 µM
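Note: spheroids exposed to agents for seven days before readout.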
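Throughout, for viability, T/C: 100% = DMSO vehicle control viability.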

Structure (SMILES) | IC50 (second compound 0.1 µM) | IC50 (second compound 0.316 µM) | IC50 (second compound 1 µM) | IC50 (second compound 3.16 µM) | IC50 (second compound 10 µM) | viability, T/C [1] | viability, T/C [2] | viability, T/C [3] | viability, T/C [4] | viability, T/C [7] | viability, T/C [8] | viability, T/C [9] | viability, T/C [10] | viability, T/C [13] | viability, T/C [14] | viability, T/C [15] | viability, T/C [16] | viability, T/C [19] | viability, T/C [20] | viability, T/C [21] | further results
C#Cc1c(F)ccc2cc(O)cc(-c3ncc4c(N5CC6CCC(C5)N6)nc(OCC56CCCN5CC(F)C6)nc4c3F)c12 (stereo not given) + Cc1c(S(C)(=O)=O)c(-c2cc(F)cc(N3CCN(c4ccc(NS(=O)(=O)c5ccc(NC(CCN6CCC(C(=O)OCCCP(=O)(O)O)CC6)CSc6ccccc6)c(S(=O)(=O)C(F)(F)F)c5)cc4)CC3)c2)c(-c2ccc(Cl)cc2)n1C(C)C | > 10 µM | > 10 µM | 6.41 µM | < 0.0316 µM | < 0.0316 µM | 92.2% | 88.2% | 93.3% | 98.2% | 96.6% | 91.9% | 88.8% | 97.4% | 68.8% | 70% | 66.8% | 68.2% | 39.5% | 38.8% | 40.3% | viability, T/C [5]: 87.5%; viability, T/C [6]: 56.6%; viability, T/C [11]: 72.1%; viability, T/C [12]: 52%; viability, T/C [17]: 61.1%; viability, T/C [18]: 42.8%; viability, T/C [22]: 39.6%; viability, T/C [23]: 34.1%; viability, T/C [24]: 9.96%; viability, T/C [25]: 29.7%; viability, T/C [26]: 25.5%; viability, T/C [27]: 29.8%; viability, T/C [28]: 21.8%; viability, T/C [29]: 10.8%; viability, T/C [30]: 0.92%
C=C(F)C(=O)N1CCN(c2nc(OCC3CCCN3C)nc3c2CCN(c2cccc4cccc(Cl)c24)C3)CC1CC#N (stereo not given) + Cc1c(S(C)(=O)=O)c(-c2cc(F)cc(N3CCN(c4ccc(NS(=O)(=O)c5ccc(NC(CCN6CCC(C(=O)OCCCP(=O)(O)O)CC6)CSc6ccccc6)c(S(=O)(=O)C(F)(F)F)c5)cc4)CC3)c2)c(-c2ccc(Cl)cc2)n1C(C)C | 5.43 µM | 4.9 µM | 2.95 µM | < 0.0316 µM | < 0.0316 µM | 93.2% | 91.6% | 87.8% | 100% | 89.1% | 89.3% | 85.6% | 88.5% | 65% | 70.8% | 67.9% | 62.8% | 37.2% | 36.6% | 35.4% | viability, T/C [5]: 96.1%; viability, T/C [6]: 0.45%; viability, T/C [11]: 80.4%; viability, T/C [12]: 0.42%; viability, T/C [17]: 49.4%; viability, T/C [18]: 0.39%; viability, T/C [22]: 32%; viability, T/C [23]: 2.23%; viability, T/C [24]: 0.3%; viability, T/C [25]: 26.4%; viability, T/C [26]: 23.3%; viability, T/C [27]: 20.3%; viability, T/C [28]: 18.8%; viability, T/C [29]: 1.56%; viability, T/C [30]: 0.39%
CNC(C)C(=O)NC1CN(S(=O)(=O)c2cccc(S(=O)(=O)N3CCC4CCC(C(=O)NC(c5ccccc5)c5ccccc5)N4C(=O)C(NC(=O)C(C)NC)C3)c2)CCC2CCC(C(=O)NC(c3ccccc3)c3ccccc3)N2C1=O (stereo not given) + Cc1c(S(C)(=O)=O)c(-c2cc(F)cc(N3CCN(c4ccc(NS(=O)(=O)c5ccc(NC(CCN6CCC(C(=O)OCCCP(=O)(O)O)CC6)CSc6ccccc6)c(S(=O)(=O)C(F)(F)F)c5)cc4)CC3)c2)c(-c2ccc(Cl)cc2)n1C(C)C | > 1 µM | > 1 µM | > 1 µM | < 0.00316 µM | < 0.00316 µM | 92.2% | 94.8% | 100% | 97.5% | 92% | 97% | 87.9% | 94.7% | 73.2% | 76% | 69.6% | 68.7% | 40.1% | 39.5% | 36.2% | viability, T/C (second compound 0.1 µM, first compound 0.00316 µM): 94%; viability, T/C (second compound 0.1 µM, first compound 0.01 µM): 99.3%; viability, T/C (second compound 0.316 µM, first compound 0.00316 µM): 96.8%; viability, T/C (second compound 0.316 µM, first compound 0.01 µM): 97.4%; viability, T/C (second compound 1 µM, first compound 0.00316 µM): 73.1%; viability, T/C (second compound 1 µM, first compound 0.01 µM): 76%; viability, T/C (second compound 3.16 µM, first compound 0.00316 µM): 45.5%; viability, T/C (second compound 3.16 µM, first compound 0.01 µM): 40%; viability, T/C [22]: 28.6%; viability, T/C (second compound 10 µM, first compound 0.00316 µM): 26.5%; viability, T/C (second compound 10 µM, first compound 0.01 µM): 23.9%; viability, T/C [25]: 27.9%; viability, T/C [26]: 26.4%; viability, T/C [27]: 22.4%; viability, T/C [28]: 19.1%

Reference: PubChem BioAssay AID1963448 (Molecular Pharmacology Branch, DTP, NCI, 2024)
